Results from publication PMC5478857, “Metabolic Products of Linalool and Modulation of GABAA Receptors” (Frontiers in Chemistry, 2017).

System: T1, GABAA receptor α1β2γ2
T1 construct: gene GABRA1; α1β2γ2 heteromer transiently expressed in HEK293 cells; with GABAA receptor β2 and γ2 subunits
Test: whole-cell patch clamp, […] co-applied with […] GABA ([…] of GABA current, P < […])
Format: cell-based

C=CC(C)(O)CCC=C(C)C (stereo not shown) [Linalool, 3,7-dimethyl-1,6-octadiene-3-ol]
% of GABA current at 2 mM: 160 ± 14 % of GABA current at 2 mM
